Values of other authors, collected in EP4729055A1, “TREATMENT OF DISORDERS USING SPHINGOSINE-1-PHOSPHATE RECEPTOR MODULATORS” (The Provost, Fellows, Foundation Scholars, & the other …, priority 2024, dated 2026).

- log P: 5.5
Compound: CCCCCCCCc1ccc(CCC(N)(CO)CO)cc1 [fingolimod, 2-Amino-2-[2-(4-octylphenyl)ethyl]propane-1,3-diol]
